PMC11243685, “Synthesis and Enzymatic Evaluation of a Small Library of Substituted Phenylsulfonamido-Alkyl Sulfamates towards Carbonic Anhydrase II” (Molecules, 2024)

How the values were obtained:
[1] = target: T1, bovine carbonic anhydrase II (Bos taurus, UniProt P00921); test: Enzymatic assay of bCA II inhibition, absorbance at 415 nm; type: biochemical; conditions: for inhibition at 1 µM: bCA II, 1 μM concentration of the inhibitor, triplicate with three technical replicas; for Ki: CA II, from Lineweaver–Burk, Dixon and Cornish Bowden plots, read-out: Inhibition constant Ki;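 as to all read-outs here: enzyme is carbonic anhydrase II isolated from bovine erythrocytes, with its activity followed photometrically at 415 nm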
T1 construct: carbonic anhydrase II (bCAII, ≥3000 W-A units/mg from bovine erythrocytes) from Sigma; purchased Sigma (Taufkirchen, Germany); host or cells: isolated from bovine erythrocytes
T1 sequence (P00921 whole entry): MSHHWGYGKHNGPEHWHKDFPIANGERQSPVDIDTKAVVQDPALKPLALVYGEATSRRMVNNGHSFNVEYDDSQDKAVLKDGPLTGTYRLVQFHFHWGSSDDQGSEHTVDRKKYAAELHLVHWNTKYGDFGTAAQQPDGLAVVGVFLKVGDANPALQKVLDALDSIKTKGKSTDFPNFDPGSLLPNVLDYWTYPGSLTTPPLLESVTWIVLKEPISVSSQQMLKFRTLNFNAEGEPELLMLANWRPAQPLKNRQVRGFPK
Method: The enzymatic assays have been performed with carbonic anhydrase II (bCAII, ≥3000 W-A units/mg from bovine erythrocytes) from Sigma (Taufkirchen, Germany) using a BMG Labtech Spectrostar Omega apparatus (BMG Labtech, Ortenberg, Germany) measuring λ = 415 nm. Conditions have been described previously [72]. Ki and Ki′ values were determined from Lineweaver–Burk, Dixon and Cornish Bowden plots, respectively.

O=S(=O)(NCCO)c1ccccc1 [1a, N-(2-Hydroxyethyl)benzene Sulfonamide]
melting point: 78 to 79 °C

NS(=O)(=O)OCCNS(=O)(=O)c1ccccc1 [1b, 2-(Phenylsulfonamido]ethyl Sulfamate]
inhibition at 1 µM [1]: 59.2 ± 0.8%

NS(=O)(=O)OCCCCNS(=O)(=O)c1ccccc1 [3b, 4-(Phenylsulfonamido]butyl Sulfamate]
inhibition at 1 µM [1]: 32.2 ± 0.3%

NS(=O)(=O)OCCCCCNS(=O)(=O)c1ccccc1 [4b, 5-(Phenylsulfonamido]pentyl Sulfamate]
inhibition at 1 µM [1]: 51.8 ± 0.7%

O=S(=O)(NCCCCCCO)c1ccccc1 [5a, N-(6-Hydroxyhexyl)benzene Sulfonamide]
melting point: 40 to 42 °C

O=S(=O)(NCCCCCCCCO)c1ccccc1 [7a, N-(8-Hydroxyoctyl)benzene Sulfonamide]
melting point: 59 to 60 °C

O=S(=O)(NCCCCCCCCCO)c1ccccc1 [8a, N-(9-Hydroxynonyl)benzene Sulfonamide]
melting point: 40 to 41 °C

O=S(=O)(NCCCCCCCCCCO)c1ccccc1 [9a, N-(10-Hydroxydecyl)benzene Sulfonamide]
melting point: 67 to 69 °C

O=S(=O)(NCCCCCCCCCCCO)c1ccccc1 [10a, N-(11-Hydroxyundecyl)benzene Sulfonamide]
melting point: 58 to 59 °C

O=S(=O)(NCCCCCCCCCCCCO)c1ccccc1 [11a, N-(12-Hydroxydodecyl)benzene Sulfonamide]
melting point: 76 to 77 °C

Cc1ccc(S(=O)(=O)NCCO)cc1 [12a, N-(2-Hydroxyethyl)-4-methylbenzene Sulfonamide]
melting point: 55 to 57 °C

Cc1ccc(S(=O)(=O)NCCCO)cc1 [13a, N-(3-Hydroxypropyl)-4-methylbenzene Sulfonamide]
melting point: 55 to 57 °C

Cc1ccc(S(=O)(=O)NCCCCO)cc1 [14a, N-(4-Hydroxybutyl)-4-methylbenzene Sulfonamide]
melting point: 50 to 51 °C

Cc1ccc(S(=O)(=O)NCCCCCO)cc1 [15a, N-(5-Hydroxypentyl)-4-methylbenzene Sulfonamide]
melting point: 60 to 61 °C

Cc1ccccc1S(=O)(=O)NCCCCOS(N)(=O)=O [28b, 4-[(2-Methylphenyl)sulfonamido]butyl Sulfamate]
inhibition at 1 µM [1]: 37.9 ± 0.7%

Cc1ccccc1S(=O)(=O)NCCCCCOS(N)(=O)=O [29b, 5-[(2-Methylphenyl)sulfonamido]pentyl Sulfamate]
inhibition at 1 µM [1]: 57.2 ± 0.7%

Cc1ccccc1S(=O)(=O)NCCCCCCOS(N)(=O)=O [30b, 6-[(2-Methylphenyl)sulfonamido]hexyl Sulfamate]
Ki [1]: 1580 ± 20 nM | inhibition at 1 µM [1]: 68.1 ± 0.3%

Cc1ccccc1S(=O)(=O)NCCCCCCCOS(N)(=O)=O [31b, 7-[(2-Methylphenyl)sulfonamido]heptyl Sulfamate]
inhibition at 1 µM [1]: 55.6 ± 0.7%

Cc1ccccc1S(=O)(=O)NCCCCCCCCOS(N)(=O)=O [32b, 8-[(2-Methylphenyl)sulfonamido]octyl Sulfamate]
inhibition at 1 µM [1]: 56.2 ± 0.8%

CC(C)c1cccc(S(=O)(=O)NCCOS(N)(=O)=O)c1 [40b, 2-[(3-Isopropylphenyl)sulfonamido]ethyl Sulfamate]
Ki [1]: 1640 ± 30 nM | inhibition at 1 µM [1]: 63.7 ± 0.1%

CC(C)c1cccc(S(=O)(=O)NCCCOS(N)(=O)=O)c1 [41b, 3-[(3-Isopropylphenyl)sulfonamido]propyl Sulfamate]
inhibition at 1 µM [1]: 50.1 ± 0.9%

CC(C)c1cccc(S(=O)(=O)NCCCCOS(N)(=O)=O)c1 [42b, 4-[(3-Isopropylphenyl)sulfonamido]butyl Sulfamate]
inhibition at 1 µM [1]: 35.3 ± 0.5%

CC(C)c1cccc(S(=O)(=O)NCCCCCOS(N)(=O)=O)c1 [43b, 5-[(3-Isopropylphenyl)sulfonamido]pentyl Sulfamate]
inhibition at 1 µM [1]: 44.4 ± 0.3%

CC(C)c1cccc(S(=O)(=O)NCCCCCCOS(N)(=O)=O)c1 [44b, 6-[(3-Isopropylphenyl)sulfonamido]hexyl Sulfamate]
inhibition at 1 µM [1]: 45.5 ± 0.7%

CC(C)c1cccc(S(=O)(=O)NCCCCCCCOS(N)(=O)=O)c1 [45b, 7-[(3-Isopropylphenyl)sulfonamido]heptyl Sulfamate]
inhibition at 1 µM [1]: 37 ± 0.3%

CC(C)c1cccc(S(=O)(=O)NCCCCCCCCOS(N)(=O)=O)c1 [46b, 8-[(3-Isopropylphenyl)sulfonamido]octyl Sulfamate]
inhibition at 1 µM [1]: 29.5 ± 0.9%

CC(C)c1ccccc1S(=O)(=O)NCCCCCCCOS(N)(=O)=O [47b, 7-[(2-Isopropylphenyl)sulfonamido]heptyl Sulfamate]
inhibition at 1 µM [1]: 38.4 ± 0.2%

CC(C)c1ccccc1S(=O)(=O)NCCCCCCCCOS(N)(=O)=O [48b, 8-[(2-Isopropylphenyl)sulfonamido]octyl Sulfamate]
inhibition at 1 µM [1]: 34.2 ± 0.7%

CC(C)(C)c1cccc(S(=O)(=O)NCCOS(N)(=O)=O)c1 [58b, 2-[(3-(tert-Butyl)phenyl)sulfonamido]ethyl Sulfamate]
inhibition at 1 µM [1]: 54 ± 0.9%

CC(C)(C)c1cccc(S(=O)(=O)NCCCOS(N)(=O)=O)c1 [59b, 3-[(3-(tert-Butyl)phenyl)sulfonamido]propyl Sulfamate]
inhibition at 1 µM [1]: 53.9 ± 0.3%

CC(C)(C)c1cccc(S(=O)(=O)NCCCCOS(N)(=O)=O)c1 [60b, 4-[(3-(tert-Butyl)phenyl)sulfonamido]butyl Sulfamate]
inhibition at 1 µM [1]: 43.3 ± 0.6%

CC(C)(C)c1cccc(S(=O)(=O)NCCCCCOS(N)(=O)=O)c1 [61b, 5-[(3-(tert-Butyl)phenyl)sulfonamido]pentyl Sulfamate]
inhibition at 1 µM [1]: 39.2 ± 0.1%

CC(C)(C)c1cccc(S(=O)(=O)NCCCCCCOS(N)(=O)=O)c1 [62b, 6-[(3-(tert-Butyl)phenyl)sulfonamido]hexyl Sulfamate]
inhibition at 1 µM [1]: 41.7 ± 0.8%

CC(C)(C)c1cccc(S(=O)(=O)NCCCCCCCOS(N)(=O)=O)c1 [63b, 7-[(3-(tert-Butyl)phenyl)sulfonamido]heptyl Sulfamate]
inhibition at 1 µM [1]: 33.3 ± 0.3%

CC(C)(C)c1ccccc1S(=O)(=O)NCCCCCOS(N)(=O)=O [65b, 5-[(2-(tert-Butyl)phenyl)sulfonamido]pentyl Sulfamate]
inhibition at 1 µM [1]: 56.2 ± 0.8%

CC(C)(C)c1ccccc1S(=O)(=O)NCCCCCCOS(N)(=O)=O [66b, 6-[(2-(tert-Butyl)phenyl)sulfonamido]hexyl Sulfamate]
inhibition at 1 µM [1]: 34.5 ± 0.4%

CC(C)(C)c1ccccc1S(=O)(=O)NCCCCCCCOS(N)(=O)=O [67b, 7-[(2-(tert-Butyl)phenyl)sulfonamido]heptyl Sulfamate]
inhibition at 1 µM [1]: 27.5 ± 0.3%

NS(=O)(=O)OCCNS(=O)(=O)c1ccc(C2CCCCC2)cc1 [68b, 2-[(4-Cyclohexylphenyl)sulfonamido]ethyl Sulfamate]
inhibition at 1 µM [1]: 52.1 ± 1.2%

NS(=O)(=O)OCCCCNS(=O)(=O)c1ccc(C2CCCCC2)cc1 [70b, 4-[(4-Cyclohexylphenyl)sulfonamido]butyl Sulfamate]
inhibition at 1 µM [1]: 34.7 ± 2.5%

NS(=O)(=O)OCCCCCNS(=O)(=O)c1ccc(C2CCCCC2)cc1 [71b, 5-[(4-Cyclohexylphenyl)sulfonamido]pentyl Sulfamate]
inhibition at 1 µM [1]: 18.6 ± 1%

NS(=O)(=O)OCCCCCCCNS(=O)(=O)c1ccc(C2CCCCC2)cc1 [73b, 7-[(4-Cyclohexylphenyl)sulfonamido]heptyl Sulfamate]
inhibition at 1 µM [1]: 14.8 ± 0.4%

NS(=O)(=O)OCCCCCCCCNS(=O)(=O)c1ccc(C2CCCCC2)cc1 [74b, 8-[(4-Cyclohexylphenyl)sulfonamido]octyl Sulfamate]
inhibition at 1 µM [1]: 14.2 ± 1.1%

NS(=O)(=O)OCCCCCCCCCCNS(=O)(=O)c1ccc(C2CCCCC2)cc1 [76b, 10-[(4-Cyclohexylphenyl)sulfonamido]decyl Sulfamate]
inhibition at 1 µM [1]: 19.7 ± 1.6%
